Measured values as given in US20100298141A1, “SUBSTITUTED PYRIDINE N-OXIDE HERBICIDES” (E. I. DU PONT DE NEMOURS AND COMPANY, priority 2007, published 2010).

Tests used:
corn = experiment: Test C pre-/postemergence test; type: in vivo, Zea mays
In short: (§1)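 Seeds were planted and treated preemergence with test chemical in a non-phytotoxic solvent mixture containing surfactant. Postemergence applications of the same formulation went onto plants 2 to 18 cm tall (1- to 4-leaf stage). A dash marks no test result.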

velvetleaf [1] = experiment: Test A pre-/postemergence greenhouse test; type: in vivo, Abutilon theophrasti; conditions: for Plant response rating, Velvetleaf: 0 to 100 scale where 0 is no effect and 100 is complete control; for Velvetleaf plant response rating: 0 to 100 scale
In short: (§2)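 Visual injury ratings against untreated controls, taken roughly ten days after treatment in greenhouse. Plants were sprayed postemergence at one- to two-leaf stage (2–10 cm tall); at the same time, seeded loam/sand soil received a directed preemergence spray. Formulation: non-phytotoxic solvent mixture with surfactant.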

eastern black nightshade = experiment: Test C pre-/postemergence test; type: in vivo, Solanum ptycanthum
In short: as §1

redroot pigweed = experiment: Test A pre-/postemergence greenhouse test; type: in vivo, Amaranthus retroflexus; conditions: for Plant response rating, Pigweed: 0 to 100 scale where 0 is no effect and 100 is complete control; for Pigweed plant response rating: 0 to 100 scale
In short: as §2

wheat [2] = experiment: Test C pre-/postemergence test; type: in vivo, Triticum aestivum
In short: as §1

johnsongrass = experiment: Test C pre-/postemergence test; type: in vivo, Sorghum halepense
In short: as §1

giant foxtail = experiment: Test C pre-/postemergence test; type: in vivo, Setaria faberii
In short: as §1

morningglory = experiment: Test C pre-/postemergence test; type: in vivo, Ipomoea coccinea
In short: as §1

downy brome = experiment: Test C pre-/postemergence test; type: in vivo, Bromus tectorum
In short: as §1

woolly cupgrass = experiment: Test C pre-/postemergence test; type: in vivo, Eriochloa villosa
In short: as §1

velvetleaf [3] = experiment: Test C pre-/postemergence test; type: in vivo, Abutilon theophrasti
In short: as §1

catchweed bedstraw = experiment: Test C pre-/postemergence test; type: in vivo, Galium aparine
In short: as §1

wild oat = experiment: Test C pre-/postemergence test; type: in vivo, Avena fatua
In short: as §1

yellow nutsedge = experiment: Test C pre-/postemergence test; type: in vivo, Cyperus esculentus
In short: as §1

wheat [4] = experiment: Test A pre-/postemergence greenhouse test; type: in vivo, Triticum aestivum; conditions: for Plant response rating, Wheat: 0 to 100 scale where 0 is no effect and 100 is complete control; for Wheat plant response rating: 0 to 100 scale
In short: as §2

duck salad = experiment: Test C flooded paddy test; type: in vivo, Heteranthera limosa; conditions: Flood
In short: (§3)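 Under a constant 3 cm flood, test compounds went directly into the paddy water. Following 13 to 15 days of greenhouse growth, treated species and controls were compared by eye.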

rice = experiment: Test C flooded paddy test; type: in vivo, Oryza sativa; conditions: Flood
In short: as §3

[5] = 62 g ai/ha, Preemergence, scale 0 to 100
[6] = 125 g ai/ha, preemergence, scale 0 (no effect) to 100 (complete control)
[7] = Preemergence, 31 g ai/ha, scale 0 to 100 (0 no effect, 100 complete control)
[8] = preemergence, 250 g ai/ha, scale 0 (no effect) to 100 (complete control)
[9] = Postemergence, 500 g ai/ha, 0 is no effect, 100 is complete control
[10] = Preemergence, 125 g ai/ha, 0 no effect, 100 complete control
[11] = Preemergence, 500 g ai/ha, 0 no effect, 100 complete control
[12] = 62 g ai/ha, scale 0 to 100 (0 no effect, 100 complete control)
[13] = 250 g ai/ha, scale 0 to 100, 0 no effect, 100 complete control, 13 to 15 days
[14] = 31 g ai/ha, Preemergence, scale 0 to 100
[15] = 62 g ai/ha, preemergence, scale 0 (no effect) to 100 (complete control)
[16] = preemergence, 125 g ai/ha, scale 0 (no effect) to 100 (complete control)
[17] = Postemergence, 125 g ai/ha, 0 is no effect, 100 is complete control
[18] = 31 g ai/ha, scale 0 to 100 (0 no effect, 100 complete control)
[19] = 62 g ai/ha, scale 0 to 100, 0 no effect, 100 complete control, 13 to 15 days
[20] = 125 g ai/ha, scale 0 to 100, 0 no effect, 100 complete control, 13 to 15 days
[21] = 250 g ai/ha, scale 0 to 100 (0 no effect, 100 complete control)

CC(Oc1c(C[S+]([O-])c2ccc(Cl)c[n+]2[O-])c(C(F)(F)F)nn1C)C(F)(F)F (centres unmarked) [Compound 87]
Corn plant response rating (corn; [5]): 95 | Corn plant response rating (corn; [6]): 95 | Plant response rating, Corn (corn; [7]): 85 | Corn plant response rating (corn; [8]): 98 | Plant response rating, Velvetleaf (velvetleaf [1]; Postemergence, 125 g ai/ha): 70 | Velvetleaf plant response rating (velvetleaf [1]; [9]): 80 | Velvetleaf plant response rating (velvetleaf [1]; [10]): 80 | Velvetleaf plant response rating (velvetleaf [1]; [11]): 100 | Nightshade plant response rating (eastern black nightshade; [5]): 80 | Nightshade plant response rating (eastern black nightshade; [6]): 95 | Plant response rating, Nightshade (eastern black nightshade; [7]): 80 | Nightshade plant response rating (eastern black nightshade; [8]): 100 | Plant response rating, Pigweed (redroot pigweed; Postemergence, 125 g ai/ha): 50 | Pigweed plant response rating (redroot pigweed; [9]): 100 | Pigweed plant response rating (redroot pigweed; [10]): 90 | Plant response rating, Pigweed (redroot pigweed; Preemergence, 500 g ai/ha): 100 | Wheat plant response rating (wheat [2]; [5]): 60 | Wheat plant response rating (wheat [2]; [6]): 85 | Plant response rating, Wheat (wheat [2]; [7]): 30 | Wheat plant response rating (wheat [2]; [8]): 85 | Johnsongrass plant response rating (johnsongrass; [5]): 100 | Johnsongrass plant response rating (johnsongrass; [6]): 100 | Plant response rating, Johnsongrass (johnsongrass; [7]): 90 | Johnsongrass plant response rating (johnsongrass; [8]): 100 | Foxtail, Giant plant response rating (giant foxtail; [5]): 95 | Foxtail, Giant plant response rating (giant foxtail; [6]): 100 | Plant response rating, Foxtail, Giant (giant foxtail; [7]): 85 | Foxtail, Giant plant response rating (giant foxtail; [8]): 100 | Morningglory plant response rating (morningglory; [5]): 80 | Morningglory plant response rating (morningglory; [6]): 80 | Plant response rating, Morningglory (morningglory; [7]): 60 | Morningglory plant response rating (morningglory; [8]): 95 | Plant response rating, Bromegrass, Downy (downy brome; [7]): 80 | Bromegrass, Downy plant response rating (downy brome; [8]): 100 | Cupgrass, Woolly plant response rating (woolly cupgrass; [5]): 90 | Cupgrass, Woolly plant response rating (woolly cupgrass; [6]): 98 | Plant response rating, Cupgrass, Woolly (woolly cupgrass; [7]): 80 | Cupgrass, Woolly plant response rating (woolly cupgrass; [8]): 100 | Velvetleaf plant response rating (velvetleaf [3]; [5]): 5 | Velvetleaf plant response rating (velvetleaf [3]; [6]): 70 | Plant response rating, Velvetleaf (velvetleaf [3]; [7]): 0 | Velvetleaf plant response rating (velvetleaf [3]; [8]): 95 | Galium plant response rating (catchweed bedstraw; [5]): 80 | Galium plant response rating (catchweed bedstraw; [6]): 100 | Plant response rating, Galium (catchweed bedstraw; [7]): 70 | Galium plant response rating (catchweed bedstraw; [8]): 100 | Oat, Wild plant response rating (wild oat; [5]): 90 | Oat, Wild plant response rating (wild oat; [6]): 90 | Plant response rating, Oat, Wild (wild oat; [7]): 80 | Oat, Wild plant response rating (wild oat; [8]): 100 | Nutsedge, Yellow plant response rating (yellow nutsedge; [5]): 50 | Nutsedge, Yellow plant response rating (yellow nutsedge; [6]): 80 | Plant response rating, Nutsedge, Yellow (yellow nutsedge; [7]): 50 | Nutsedge, Yellow plant response rating (yellow nutsedge; [8]): 100 | Plant response rating, Wheat (wheat [4]; Postemergence, 125 g ai/ha): 60 | Wheat plant response rating (wheat [4]; [9]): 70 | Wheat plant response rating (wheat [4]; [10]): 70 | Wheat plant response rating (wheat [4]; [11]): 100 | Plant response rating, Ducksalad (duck salad; [12]): 50 | Plant response rating, Ducksalad (duck salad; [13]): 100 | Plant response rating, Rice (rice; [12]): 30 | Plant response rating, Rice (rice; [13]): 90

CC(c1c(C(F)(F)F)nn(C)c1Cl)S(=O)(=O)c1cccc[n+]1[O-] (centres unmarked) [Compound 10]
Corn plant response rating (corn; [14]): 0 | Corn plant response rating (corn; [15]): 5 | Plant response rating (0 to 100), Corn (corn; Preemergence, 250 g ai/ha): 95 | Corn plant response rating (corn; [16]): 60 | Velvetleaf plant response rating (velvetleaf [1]; [17]): 0 | Velvetleaf plant response rating (velvetleaf [1]; [9]): 30 | Velvetleaf plant response rating (velvetleaf [1]; [10]): 60 | Plant response rating, Velvetleaf (velvetleaf [1]; Preemergence, 500 g ai/ha): 60 | Nightshade plant response rating (eastern black nightshade; [14]): 90 | Nightshade plant response rating (eastern black nightshade; [15]): 98 | Plant response rating (0 to 100), Nightshade (eastern black nightshade; Preemergence, 250 g ai/ha): 100 | Nightshade plant response rating (eastern black nightshade; [16]): 100 | Pigweed plant response rating (redroot pigweed; [17]): 30 | Pigweed plant response rating (redroot pigweed; [9]): 60 | Pigweed plant response rating (redroot pigweed; [10]): 100 | Plant response rating, Pigweed (redroot pigweed; Preemergence, 500 g ai/ha): 100 | Wheat plant response rating (wheat [2]; [15]): 35 | Plant response rating (0 to 100), Wheat (wheat [2]; Preemergence, 250 g ai/ha): 80 | Wheat plant response rating (wheat [2]; [16]): 60 | Johnsongrass plant response rating (johnsongrass; [14]): 70 | Johnsongrass plant response rating (johnsongrass; [15]): 100 | Plant response rating (0 to 100), Johnsongrass (johnsongrass; Preemergence, 250 g ai/ha): 100 | Johnsongrass plant response rating (johnsongrass; [16]): 100 | Foxtail, Giant plant response rating (giant foxtail; [14]): 85 | Foxtail, Giant plant response rating (giant foxtail; [15]): 100 | Plant response rating (0 to 100), Foxtail, Giant (giant foxtail; Preemergence, 250 g ai/ha): 100 | Foxtail, Giant plant response rating (giant foxtail; [16]): 100 | Morningglory plant response rating (morningglory; [14]): 85 | Morningglory plant response rating (morningglory; [15]): 100 | Plant response rating (0 to 100), Morningglory (morningglory; Preemergence, 250 g ai/ha): 100 | Morningglory plant response rating (morningglory; [16]): 100 | Bromegrass, Downy plant response rating (downy brome; [14]): 0 | Bromegrass, Downy plant response rating (downy brome; [15]): 0 | Plant response rating (0 to 100), Bromegrass, Downy (downy brome; Preemergence, 250 g ai/ha): 70 | Bromegrass, Downy plant response rating (downy brome; [16]): 10 | Cupgrass, Woolly plant response rating (woolly cupgrass; [14]): 75 | Cupgrass, Woolly plant response rating (woolly cupgrass; [15]): 75 | Plant response rating (0 to 100), Cupgrass, Woolly (woolly cupgrass; Preemergence, 250 g ai/ha): 100 | Cupgrass, Woolly plant response rating (woolly cupgrass; [16]): 100 | Velvetleaf plant response rating (velvetleaf [3]; [15]): 0 | Plant response rating (0 to 100), Velvetleaf (velvetleaf [3]; Preemergence, 250 g ai/ha): 75 | Velvetleaf plant response rating (velvetleaf [3]; [16]): 5 | Galium plant response rating (catchweed bedstraw; [14]): 0 | Galium plant response rating (catchweed bedstraw; [15]): 50 | Plant response rating (0 to 100), Galium (catchweed bedstraw; Preemergence, 250 g ai/ha): 100 | Galium plant response rating (catchweed bedstraw; [16]): 100 | Oat, Wild plant response rating (wild oat; [14]): 0 | Oat, Wild plant response rating (wild oat; [15]): 0 | Plant response rating (0 to 100), Oat, Wild (wild oat; Preemergence, 250 g ai/ha): 65 | Oat, Wild plant response rating (wild oat; [16]): 60 | Nutsedge, Yellow plant response rating (yellow nutsedge; [14]): 60 | Nutsedge, Yellow plant response rating (yellow nutsedge; [15]): 98 | Plant response rating (0 to 100), Nutsedge, Yellow (yellow nutsedge; Preemergence, 250 g ai/ha): 100 | Nutsedge, Yellow plant response rating (yellow nutsedge; [16]): 98 | Wheat plant response rating (wheat [4]; [17]): 50 | Wheat plant response rating (wheat [4]; [9]): 70 | Wheat plant response rating (wheat [4]; [10]): 60 | Plant response rating, Wheat (wheat [4]; Preemergence, 500 g ai/ha): 80 | Plant response rating, Ducksalad (duck salad; [18]): 30 | Plant response rating, Ducksalad (duck salad; [19]): 80 | Plant response rating, Ducksalad (duck salad; [20]): 85 | Plant response rating, Ducksalad (duck salad; [21]): 90 | Plant response rating, Rice (rice; [18]): 0 | Plant response rating, Rice (rice; [19]): 25 | Plant response rating, Rice (rice; [20]): 70 | Plant response rating, Rice (rice; [21]): 80
